Laboratory results from patent US20220370461A1, “USE OF IMIDAZOPYRIMIDINE OR IMIDAZOTRIAZINE COMPOUNDS FOR PREVENTION, ALLEVIATION, OR TREATMENT OF COGNITIVE DISORDERS, OR FOR IMPROVING COGNITIVE FUNCTION” (SK BIOPHARMACEUTICALS CO., LTD., priority 2019, published 2022).

Legend:
Assay type in all cases: in vivo
[1] = tested on: rat model exhibiting cognitive ability decreased by treatment with dizocilpine; assay: Object recognition test in rat model with cognitive ability decreased by dizocilpine; settings: for recognition index: P<0.01 vs negative control
Protocol: As an animal model of cognitive disorder, an animal model of which the cognitive ability was decreased by administering dizocilpine, a cognitive inhibitor, was used.
(§1) Male rats (Wistar, 4 weeks old, Orient Bio Co., Ltd.) were purchased and acclimatized for one week or more in an animal cage. The experimental animals were raised in a light-controlled environment (illuminated for 12 hours/nonilluminated for 12 hours) and stored and managed according to the laboratory animal care standards of the Institutional Animal Care and Use Committee (IACUC) in an environment where a temperature of 19° C. to 25° C. and a relative humidity of 30% to 70% were maintained and water and food could be freely available. The rats were stabilized for one week or more, and then used for an object recognition test. The rats were randomly divided into groups and the test was performed under illumination.
To create an animal model inducing symptoms of decreased cognitive ability, the experimental animals were treated with dizocilpine, an N-methyl-D-aspartate (NMDA) receptor inhibitor.
(§2) Dizocilpine (purchased from Sigma) was dissolved in physiological saline used as a vehicle to be freshly prepared, and subcutaneously administered at a dose of 0.1 mg/kg in a volume of 1 ml per 1 kg of rat body weight 30 minutes before training. To a control group, only physiological saline was administered.
The test compound was dissolved in 5% DMSO (dimethyl sulfoxide) in 10% Cremophor, and orally administered at doses of 0.03, 0.1, and 0.3 mg/kg in a volume of 1 ml per 1 kg of rat body weight one hour before training. To a control group, only vehicle (5% DMSO in 10% Cremophor) was administered.
Each rat was handled by the experimenter for 3 minutes or more, and box acclimation for 3 minutes was performed two times in an empty box before the experiment. After administration of vehicle or test compound intraperitoneally at a dose of 1 mg/kg one hour before training and of vehicle or dizocilpine subcutaneously 30 minutes before training, the rats were boxed for training. Training was conducted by exposing the rats in a box in which two identical plastic cylinders or stainless square pyramids were placed. One hour after training, the test was performed in a box in which one plastic cylinder and one stainless square pyramid was placed. During the test, the time during which the rat explored each object was measured. The test results were analyzed using a stainless square pyramid as a novel object in the case of rats trained in a box in which two plastic cylinders were placed and a plastic cylinder as a novel object in the case of rats trained in a box in which two stainless steel pyramids were placed.
The recognition index was calculated based on the time during which the object was explored, the data on the recognition index between groups was analyzed by one-way analysis of variance (ANOVA) and Dunnett's multiple comparison test, and then the effect was defined as significant when p<0.05. All results were expressed as mean±SEM.

[2] = tested on: rat model exhibiting cognitive ability decreased by treatment with dizocilpine; assay: Y-maze test in rat model with cognitive ability decreased by dizocilpine
Protocol: as §1, with “Committee” for “Committee (IACUC)”, “a Y-maze” for “an object recognition”
To create an animal model inducing symptoms of decreased cognitive ability, experimental animals were treated with dizocilpine, an NMDA receptor inhibitor.
as §2
The test compound was dissolved in 5% DMSO in 9.5% Cremophor, and orally administered at doses of 0.1, 0.3, and 1 mg/kg in a volume of 5 ml per 1 kg of rat body weight one hour before training. To a control group, only vehicle (5% DMSO in 9.5% Cremophor) was administered.
The rats were handled by the experimenter for 3 minutes for two days, and a Y-maze test was performed the next day. After administration of vehicle or test compound intraperitoneally one hour before test and of vehicle or dizocilpine subcutaneously 30 minutes before test, the Y-maze test was performed for 5 minutes by placing the rat at the end of one arm in the Y-maze and allowing the rat to move freely. The three arms positioned at the same angle in the Y-maze had the same length of 45 cm, the same width of 10 cm, and the same height of 20 cm. A case where a rat visited three different arms in succession was defined as an alternation behavior.
The alternation rate was determined by identifying the alternation behavior of the rat based on the visit record to each arm in the Y-maze test, the data on the alternation rate between groups was analyzed by one-way ANOVA and Dunnett's multiple comparison test, and then the effect was defined as significant when p<0.05. All results were expressed as mean±SEM.

[3] = tested on: rat model undergone natural forgetting; assay: Object recognition test in natural forgetting rat model; settings: for Recognition index (mean ± SEM): test 24 h after training

SMILES: C[C@]12N[C@H](Cc3ccccc31)c1ccccc12 [Dizocilpine, dizocilpine, reference compound]
- Recognition index (mean ± SEM) ([1]; dizocilpine 0.1 mg/kg sc only (negative control), vehicle group 63.29 ± 1.56): 49.77 ± 1.03
- Alternation rate (mean ± SEM) ([2]; dizocilpine 0.1 mg/kg sc only (negative control), vehicle group 70.1 ± 2.8): 49.2 ± 5.3
- alternation rate ([2]; dizocilpine only (negative control), P<0.001 vs vehicle group): 49.2 ± 5.3%

SMILES: Fc1ccc(-c2cnc3nc(COc4ccccn4)cn3c2)c(C(F)(F)F)c1 [test compound, 6-[4-fluoro-2-(trifluoromethyl)phenyl]-2-(2-pyridyloxymethyl)imidazo[1,2-a]pyrimidine]
- Recognition index (mean ± SEM) ([1]; dizocilpine 0.1 mg/kg sc + test compound 0.03 mg/kg po, test 1 h after training, index = novel/total exploring time × 100): 51.95 ± 1.79
- Recognition index (mean ± SEM) ([1]; dizocilpine 0.1 mg/kg sc + test compound 0.1 mg/kg po, test 1 h after training): 57.95 ± 1.8
- Recognition index (mean ± SEM) ([1]; dizocilpine 0.1 mg/kg sc + test compound 0.3 mg/kg po, test 1 h after training): 57.62 ± 1.89
- recognition index ([1]; dizocilpine + test compound 0.1 mg/kg): 57.95±1.8%
- recognition index ([1]; dizocilpine + test compound 0.3 mg/kg): 57.62±1.89%
- Recognition index (mean ± SEM) ([3]; test compound 0.1 mg/kg po, first experiment, vehicle 48.61 ± 1.87): 56.57 ± 2.37
- recognition index ([3]; test compound 0.1 mg/kg, first experiment, P<0.05 vs control): 56.57±2.37
- Recognition index (mean ± SEM) ([3]; test compound 0.3 mg/kg po, first experiment): 59.77 ± 2.64
- recognition index ([3]; test compound 0.3 mg/kg, first experiment, P<0.01 vs control): 59.77±2.64
- Recognition index (mean ± SEM) ([3]; test compound 1 mg/kg po, second experiment, vehicle 51.20 ± 2.61): 60.91 ± 2.72
- recognition index ([3]; test compound 1 mg/kg, second experiment, P<0.01 vs control): 60.91±2.72
- Recognition index (mean ± SEM) ([3]; test compound 3 mg/kg po, second experiment): 56.20 ± 2.27
- recognition index ([3]; test compound 3 mg/kg, second experiment): 56.20±2.27
- Alternation rate (mean ± SEM) ([2]; dizocilpine 0.1 mg/kg sc + test compound 0.1 mg/kg po, 5 min Y-maze, actual/maximum possible alternations × 100): 67.3 ± 3.5
- Alternation rate (mean ± SEM) ([2]; dizocilpine 0.1 mg/kg sc + test compound 0.3 mg/kg po): 57.3 ± 5.7
- Alternation rate (mean ± SEM) ([2]; dizocilpine 0.1 mg/kg sc + test compound 1 mg/kg po): 49.9 ± 7.2
- alternation rate ([2]; dizocilpine + test compound 0.1 mg/kg, P<0.001 vs negative control): 67.3 ± 3.5%
- alternation rate ([2]; dizocilpine + test compound 0.3 mg/kg, tendency toward recovery): 57.3 ± 5.7%
